These results are taken from patent US10011607B2, “Ethynyl derivatives” (Hoffmann-La Roche Inc., priority 2015, dated 2018).

This assay concerns the target human mGlu4 receptor (Homo sapiens (Human), UniProt Q14833). Put plainly: Ca2+ mobilization in vitro assay on recombinant human mGlu4 expressed in HEK293 cells (PAM). In kind it is cell-based. The settings on record: for Emax: HEK293, maximal response in % of maximal stimulatory effect of saturating L-AP4, read-out: Eff. (%); for EC50: HEK293 cells, human mGlu4, in presence of EC20 of L-AP4, read-out: EC50 (nM) mGlu4PAM. The source says: FIG. 1: Illustrates the experimental outline for mGlu4 PAM Ca^2+ mobilization screening assay and the determination of EC50 and % Emax values. […] A depression of the signal observed after addition of the EC20 concentration of L-AP4 was indicative of an inhibitory activity of the test compound.
Determination of EC50 Values Using a Ca2+ Mobilization In Vitro Assay on Recombinant Human mGlu4 Expressed in HEK293 Cells:
A monoclonal HEK-293 cell line stably transfected with a cDNA encoding for the human mGlu4 receptor was generated; for the work with mGlu4 Positive Allosteric Modulators (PAMs), a cell line with low receptor expression levels and low constitutive receptor activity was selected to allow the differentiation of agonistic versus PAM activity. Cells were cultured according to standard protocols (Freshney, 2000) in Dulbecco's Modified Eagle Medium with high glucose supplemented with 1 mM glutamine, 10% (vol/vol) heat-inactivated bovine calf serum, Penicillin/Streptomycin, 50 μg/ml hygromycin and 15 μg/ml blasticidin (all cell culture reagents and antibiotics from Invitrogen, Basel, Switzerland).
About 24 hrs before an experiment, 5×10^4 cells/well were seeded in poly-D-lysine coated, black/clear-bottomed 96-well plates. The cells were loaded with 2.5 μM Fluo-4AM in loading buffer (1×HBSS, 20 mM HEPES) for 1 hr at 37° C. and washed five times with loading buffer. The cells were transferred into a Functional Drug Screening System 7000 (Hamamatsu, Paris, France), and 11 half logarithmic serial dilutions of test compound at 37° C. were added and the cells were incubated for 10-30 min. with on-line recording of fluorescence. Following this pre-incubation step, the agonist (2S)-2-amino-4-phosphonobutanoic acid (L-AP4) was added to the cells at a concentration corresponding to EC20 with on-line recording of fluorescence; in order to account for day-to-day variations in the responsiveness of cells, the EC20 of L-AP4 was determined immediately ahead of each experiment by recording of a full dose-response curve of L-AP4.
Responses were measured as peak increase in fluorescence minus basal (i.e. fluorescence without addition of L-AP4), normalized to the maximal stimulatory effect obtained with saturating concentrations of L-AP4. Graphs were plotted with the % maximal stimulatory using XLfit, a curve fitting program that iteratively plots the data using Levenburg Marquardt algorithm. The single site competition analysis equation used was y=A+((B−A)/(1+((x/C)D))), where y is the % maximal stimulatory effect, A is the minimum y, B is the maximum y, C is the EC50, x is the log 10 of the concentration of the competing compound and D is the slope of the curve (the Hill Coefficient). From these curves the EC50 (drug concentration at which 50% of the maximal receptor activation was achieved), the Hill coefficient as well as the maximal response in % of the maximal stimulatory effect obtained with saturating concentrations of L-AP4 were calculated (see FIG. 1).

Sequence of human mGlu4 receptor (Q14833 33-912): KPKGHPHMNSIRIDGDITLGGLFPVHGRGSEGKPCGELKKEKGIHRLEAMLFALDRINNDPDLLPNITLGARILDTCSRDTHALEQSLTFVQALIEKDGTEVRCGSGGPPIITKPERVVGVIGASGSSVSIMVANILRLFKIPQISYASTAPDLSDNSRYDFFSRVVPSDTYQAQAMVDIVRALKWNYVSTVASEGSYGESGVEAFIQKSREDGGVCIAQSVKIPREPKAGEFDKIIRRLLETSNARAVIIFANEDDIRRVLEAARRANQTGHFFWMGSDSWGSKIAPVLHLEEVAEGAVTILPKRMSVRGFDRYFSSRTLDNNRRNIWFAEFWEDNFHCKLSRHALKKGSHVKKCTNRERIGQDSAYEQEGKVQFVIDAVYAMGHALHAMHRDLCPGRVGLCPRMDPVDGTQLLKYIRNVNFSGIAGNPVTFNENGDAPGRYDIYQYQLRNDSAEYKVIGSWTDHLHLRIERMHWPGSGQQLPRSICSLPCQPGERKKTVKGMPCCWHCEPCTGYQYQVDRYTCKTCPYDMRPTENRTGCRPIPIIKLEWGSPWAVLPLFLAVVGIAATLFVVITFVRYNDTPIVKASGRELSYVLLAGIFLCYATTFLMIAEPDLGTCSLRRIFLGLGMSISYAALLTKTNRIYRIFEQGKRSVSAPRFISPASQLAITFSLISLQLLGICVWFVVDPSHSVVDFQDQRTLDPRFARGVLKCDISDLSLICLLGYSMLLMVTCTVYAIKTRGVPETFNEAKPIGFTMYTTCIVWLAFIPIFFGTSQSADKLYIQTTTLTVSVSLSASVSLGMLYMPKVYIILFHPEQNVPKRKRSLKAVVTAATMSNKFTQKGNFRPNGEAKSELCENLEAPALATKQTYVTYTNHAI

With `O=C1C2CC(=O)N(c3c(F)cc(C#Cc4ccccc4)cc3F)C(=O)N2CCN1c1cccnc1` (racemic) [Example 1, (9aRS)-7-[2,6-difluoro-4-(2-phenylethynyl)phenyl]-2-(3-pyridyl)-3,4,9,9a-tetrahydropyrazino[1,2-c]pyrimidine-1,6,8-trione], the Emax is 105% and the EC50 turned out to be 224 nM.

Regarding `O=C1C2CC(=O)N(c3c(F)cc(C#Cc4ccccc4)cc3F)C(=O)N2CCN1c1ccncn1` (racemic) [Example 2, (9aRS)-7-[2,6-difluoro-4-(2-phenylethynyl)phenyl]-2-pyrimidin-4-yl-3,4,9,9a-tetrahydropyrazino[1,2-c]pyrimidine-1,6,8-trione], the Emax is 88% and the 50% effective concentration (EC50) amounted to 85 nM.

For the compound `O=C1C2CC(=O)N(c3c(F)cc(C#Cc4ccccc4)cc3F)C(=O)N2CCN1c1ccccn1` (racemic) [Example 3, (9aRS)-7-[2,6-difluoro-4-(2-phenylethynyl)phenyl]-2-(2-pyridyl)-3,4,9,9a-tetrahydropyrazino[1,2-c]pyrimidine-1,6,8-trione], the Emax was 116% and the EC50 was 235 nM.

On to `CC12CC(=O)N(c3c(F)cc(C#Cc4ccccc4)cc3F)C(=O)N1CCN(c1ccccn1)C2=O` (racemic) [Example 4, (9aRS)-7-[2,6-difluoro-4-(2-phenylethynyl)phenyl]-9a-methyl-2-(2-pyridyl)-4,9-dihydro-3H-pyrazino[1,2-c]pyrimidine-1,6,8-trione], for which the Emax stood at 110% and the EC50 was found to be 119 nM.

For `CC12CC(=O)N(c3c(F)cc(C#Cc4ccccc4)cc3F)C(=O)N1CCN(c1cccnc1)C2=O` (racemic) [Example 6, (9aRS)-7-[2,6-difluoro-4-(2-phenylethynyl)phenyl]-9a-methyl-2-(3-pyridyl)-4,9-dihydro-3H-pyrazino[1,2-c]pyrimidine-1,6,8-trione], the Emax was determined as 122% and the EC50 amounted to 118 nM.

`CC12CC(=O)N(c3c(F)cc(C#Cc4ccccc4)cc3F)C(=O)N1CCN(c1ccncc1)C2=O` (racemic) [Example 8, (9aRS)-7-[2,6-difluoro-4-(2-phenylethynyl)phenyl]-9a-methyl-2-(4-pyridyl)-4,9-dihydro-3H-pyrazino[1,2-c]pyrimidine-1,6,8-trione]: the Emax is 118% and the EC50 came out at 129 nM.

As for `Cc1cccc(N2CCN3C(=O)N(c4c(F)cc(C#Cc5ccccc5)cc4F)C(=O)CC3(C)C2=O)n1` (racemic) [Example 10, (9aRS)-7-[2,6-difluoro-4-(2-phenylethynyl)phenyl]-9a-methyl-2-(6-methyl-2-pyridyl)-4,9-dihydro-3H-pyrazino[1,2-c]pyrimidine-1,6,8-trione], the Emax amounted to 127% and the EC50 turned out to be 163 nM.

As for `Cc1cc(N2CCN3C(=O)N(c4c(F)cc(C#Cc5ccccc5)cc4F)C(=O)CC3(C)C2=O)ccn1` (racemic) [Example 11, (9aRS)-7-[2,6-difluoro-4-(2-phenylethynyl)phenyl]-9a-methyl-2-(2-methyl-4-pyridyl)-4,9-dihydro-3H-pyrazino[1,2-c]pyrimidine-1,6,8-trione], the Emax was 119% and the half-maximal effective concentration (EC50) amounted to 214 nM.

On to `Cc1ccnc(N2CCN3C(=O)N(c4c(F)cc(C#Cc5ccccc5)cc4F)C(=O)CC3(C)C2=O)c1` (racemic) [Example 12, (9aRS)-7-(2,6-difluoro-4-(phenylethynyl)phenyl)-9a-methyl-2-(4-methylpyridin-2-yl)tetrahydro-1H-pyrazino[1,2-c]pyrimidine-1,6,8(2H,7H)-trione], for which the Emax is 126% and the EC50 was 131 nM.

Take `Cc1cncc(N2CCN3C(=O)N(c4c(F)cc(C#Cc5ccccc5)cc4F)C(=O)CC3(C)C2=O)c1` (racemic) [Example 14, (9aRS)-7-[2,6-difluoro-4-(2-phenylethynyl)phenyl]-9a-methyl-2-(5-methyl-3-pyridyl)-4,9-dihydro-3H-pyrazino[1,2-c]pyrimidine-1,6,8-trione]: the Emax was 129% and the EC50 was 105 nM.

For `Cc1ccc(N2CCN3C(=O)N(c4c(F)cc(C#Cc5ccccc5)cc4F)C(=O)CC3(C)C2=O)cn1` (racemic) [Example 16, (9aRS)-7-[2,6-difluoro-4-(2-phenylethynyl)phenyl]-9a-methyl-2-(6-methyl-3-pyridyl)-4,9-dihydro-3H-pyrazino[1,2-c]pyrimidine-1,6,8-trione], the Emax turned out to be 125% and the EC50 worked out at 298 nM.

Take `CC12CC(=O)N(c3c(F)cc(C#Cc4ccccc4)cc3F)C(=O)N1CCN(c1ccnc(Cl)c1)C2=O` (racemic) [Example 18, (9aRS)-2-(2-chloro-4-pyridyl)-7-[2,6-difluoro-4-(2-phenylethynyl)phenyl]-9a-methyl-4,9-dihydro-3H-pyrazino[1,2-c]pyrimidine-1,6,8-trione]: the Emax was found to be 131% and the EC50 was determined as 114 nM.

`CC12CC(=O)N(c3c(F)cc(C#Cc4ccccc4)cc3F)C(=O)N1CCN(c1ccc(Cl)nc1)C2=O` (racemic) [Example 20, (9aRS)-2-(6-chloro-3-pyridyl)-7-[2,6-difluoro-4-(2-phenylethynyl)phenyl]-9a-methyl-4,9-dihydro-3H-pyrazino[1,2-c]pyrimidine-1,6,8-trione]: the Emax turned out to be 101% and the EC50 was 116 nM.

Turning to `COc1ccc(N2CCN3C(=O)N(c4c(F)cc(C#Cc5ccccc5)cc4F)C(=O)CC3(C)C2=O)cn1` (racemic) [Example 22, (9aRS)-7-[2,6-difluoro-4-(2-phenylethynyl)phenyl]-2-(6-methoxy-3-pyridyl)-9a-methyl-4,9-dihydro-3H-pyrazino[1,2-c]pyrimidine-1,6,8-trione], the Emax stood at 106% and the EC50 amounted to 105 nM.

Regarding `CC12CC(=O)N(c3c(F)cc(C#Cc4ccccc4)cc3F)C(=O)N1CCN(c1ncccn1)C2=O` (racemic) [Example 25, (9aRS)-7-[2,6-difluoro-4-(2-phenylethynyl)phenyl]-9a-methyl-2-pyrimidin-2-yl-4,9-dihydro-3H-pyrazino[1,2-c]pyrimidine-1,6,8-trione], the Emax was found to be 122% and the EC50 worked out at 135 nM.

Take `CC12CC(=O)N(c3c(F)cc(C#Cc4ccccc4)cc3F)C(=O)N1CCN(c1ccncn1)C2=O` (racemic) [Example 26, (9aRS)-7-[2,6-difluoro-4-(2-phenylethynyl)phenyl]-9a-methyl-2-pyrimidin-4-yl-4,9-dihydro-3H-pyrazino[1,2-c]pyrimidine-1,6,8-trione]: the Emax is 101% and the EC50 amounted to 36 nM.

`CC12CC(=O)N(c3c(F)cc(C#Cc4ccccc4)cc3F)C(=O)N1CCN(c1cncnc1)C2=O` (racemic) [Example 28, (9aRS)-7-[2,6-difluoro-4-(2-phenylethynyl)phenyl]-9a-methyl-2-pyrimidin-5-yl-4,9-dihydro-3H-pyrazino[1,2-c]pyrimidine-1,6,8-trione]: the Emax is 120% and the concentration for a half-maximal effect (EC50) is 145 nM.

Regarding `Cc1cc(N2CCN3C(=O)N(c4c(F)cc(C#Cc5ccccc5)cc4F)C(=O)CC3(C)C2=O)nc(C)n1` (racemic) [Example 29, (9aRS)-7-[2,6-difluoro-4-(2-phenylethynyl)phenyl]-2-(2,6-dimethylpyrimidin-4-yl)-9a-methyl-4,9-dihydro-3H-pyrazino[1,2-c]pyrimidine-1,6,8-trione], the Emax stood at 112% and the EC50 came out at 177 nM.

The EC50 is the concentration that produces a half-maximal response.
